Active and inactive are the calls of the source. The calls are words filed in the database; no cut-off is given here.
How the values were obtained:
[1] = Apparent volume of distribution in mouse at 2 mg/kg, iv measured upto 24 hrs by LC-MS analysis; format: ADME, organism-based; conditions: in vivo
[2] = Drug distribution in rat kidney measured after 0.5 to 6 hrs; format: ADME, tissue-based; conditions: in vivo, time 0.5-6 hrs
[3] = Tmax in Sprague-Dawley rat at 1 mg/kg, po measured upto 24 hrs by LC-MS analysis; format: ADME, organism-based; conditions: in vivo
[4] = Drug metabolism in human hepatocytes assessed as phase 1 metabolites formation at 10 uM incubated for 120 mins by UHPLC-UV/MS/MS method; format: ADME, cell-based, Hepatocyte; conditions: 2 h
[5] = Apparent permeability across basolateral to apical side in human Caco-2 cells at 10 uM incubated for 2 hrs by LC-MS/MS analysis; format: ADME, cell-based
MC-38 [6] = test: Synergistic antitumor activity against mouse MC38 cells implanted in C57BL/6J mouse assessed as reduction in tumor weight at 100 mg/kg, po QD administered for 3 to 4 weeks in presence of 5 mg/kg anti-PD1 and measured twice a week (reference value: 1.79 +/- 0.24 g); format: functional; conditions: time 3-4 weeks
[7] = Clearance in mouse relative to hepatic blood flow; conditions: in vivo
[8] = biological target: T1, Protein cereblon/Mitogen-activated protein kinase kinase kinase kinase 1 (Homo sapiens, UniProt Q92918+Q96SW2); test: PROTAC activity at CRBN/HPK1 in human Jurkat cells assessed as HPK1 degradation at 1 uM after 4 hrs by Western blotting analysis; format: cell-based
T1 sequence (Q92918 whole entry, looked up): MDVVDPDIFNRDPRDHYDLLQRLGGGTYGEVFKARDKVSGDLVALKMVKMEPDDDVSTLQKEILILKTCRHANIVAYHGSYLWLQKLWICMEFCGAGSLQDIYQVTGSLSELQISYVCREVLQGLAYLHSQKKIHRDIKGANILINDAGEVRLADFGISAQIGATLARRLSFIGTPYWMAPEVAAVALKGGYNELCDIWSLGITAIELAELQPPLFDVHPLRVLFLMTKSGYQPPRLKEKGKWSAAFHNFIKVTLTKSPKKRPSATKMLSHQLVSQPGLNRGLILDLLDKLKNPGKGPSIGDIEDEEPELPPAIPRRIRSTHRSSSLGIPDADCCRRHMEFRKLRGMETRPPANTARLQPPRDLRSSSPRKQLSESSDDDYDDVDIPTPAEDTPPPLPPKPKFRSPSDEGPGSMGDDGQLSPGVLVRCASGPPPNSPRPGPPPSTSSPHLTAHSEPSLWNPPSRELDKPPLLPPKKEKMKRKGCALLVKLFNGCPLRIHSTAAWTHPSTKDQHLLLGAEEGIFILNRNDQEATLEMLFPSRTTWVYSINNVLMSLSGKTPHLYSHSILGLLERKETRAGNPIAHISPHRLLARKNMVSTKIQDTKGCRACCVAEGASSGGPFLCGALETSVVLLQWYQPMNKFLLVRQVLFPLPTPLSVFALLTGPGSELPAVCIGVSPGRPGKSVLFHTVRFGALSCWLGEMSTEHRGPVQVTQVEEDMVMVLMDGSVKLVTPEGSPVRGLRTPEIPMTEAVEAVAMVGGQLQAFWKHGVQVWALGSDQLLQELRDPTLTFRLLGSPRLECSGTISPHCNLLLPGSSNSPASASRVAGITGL
T1 sequence (Q96SW2 whole entry, looked up): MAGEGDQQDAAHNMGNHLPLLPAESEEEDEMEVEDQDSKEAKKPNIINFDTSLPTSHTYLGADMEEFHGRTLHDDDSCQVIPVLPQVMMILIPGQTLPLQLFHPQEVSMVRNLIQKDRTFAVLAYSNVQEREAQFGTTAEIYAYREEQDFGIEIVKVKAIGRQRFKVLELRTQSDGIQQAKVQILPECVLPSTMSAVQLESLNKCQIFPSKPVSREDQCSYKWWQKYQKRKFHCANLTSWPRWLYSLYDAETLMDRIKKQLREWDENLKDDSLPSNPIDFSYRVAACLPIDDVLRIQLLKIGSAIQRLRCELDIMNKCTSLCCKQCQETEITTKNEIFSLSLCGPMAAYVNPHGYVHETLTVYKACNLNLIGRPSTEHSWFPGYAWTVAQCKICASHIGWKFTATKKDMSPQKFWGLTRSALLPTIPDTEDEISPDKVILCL

[9] = biological target: T1, Protein cereblon/Mitogen-activated protein kinase kinase kinase kinase 1; test: PROTAC activity at CRBN/HPK1 in human Jurkat cells assessed as HPK1 degradation at 0.01 uM pretreated with MG132 for 4 hrs followed by compound addition and measured after 24 hrs by Western blotting analysis; format: cell-based
MC-38 [10] = test: Synergistic antitumor activity against mouse MC38 cells implanted in C57BL/6J mouse assessed as reduction in tumor volume at 1 mg/kg, po bid administered for 3 to 4 weeks in presence of 5 mg/kg anti-PD1 and measured twice a week (reference value: 1549.22 +/- 217.92 mm3); format: functional; conditions: time 3-4 weeks
[11] = Drug absorption in mouse at 10 to 100 mg/kg, po; format: ADME, organism-based; conditions: in vivo, dose 10-100 mg/kg
[12] = Tmax in male Sprague-Dawley rat at 30 mg/kg/day, po measured at day 14; format: ADME, organism-based; conditions: in vivo, time 14 day
[13] = Drug metabolism in human hepatocytes assessed as phase 2 metabolites formation at 10 uM incubated for 120 mins by UHPLC-UV/MS/MS method; format: ADME, cell-based, Hepatocyte; conditions: 2 h
[14] = Drug absorption in rat at 10 to 100 mg/kg, po; format: ADME, organism-based; conditions: in vivo, dose 10-100 mg/kg
in vivo [15] = conditions: male, Sprague-Dawley, rat, po, 2 mg/kg
in vitro [16] = conditions: mouse, liver microsomes
MC-38 [17] = test: Synergistic antitumor activity against mouse MC38 cells implanted in C57BL/6J mouse assessed as reduction in tumor weight at 0.5 mg/kg, po bid administered for 3 to 4 weeks in presence of 5 mg/kg anti-PD1 and measured twice a week (reference value: 1.79 +/- 0.24 g); format: functional; conditions: time 3-4 weeks
in vivo [18] = conditions: female, Sprague-Dawley, rat, po, 30 mg/kg
[19] = biological target: T1, Protein cereblon/Mitogen-activated protein kinase kinase kinase kinase 1; test: PROTAC activity at CRBN/HPK1 in human Jurkat cells assessed as HPK1 degradation at 300 nM measured after 24 hrs by Western blotting analysis; format: cell-based
in vitro [20] = conditions: dog, liver microsomes
[21] = Volume of distribution at steady state in C57BL/6J mouse at 2 mg/kg, iv measured upto 24 hrs by LC-MS analysis; format: ADME, organism-based; conditions: in vivo, read-out: Vdss
Cytochrome P450 3A4 = Cytochrome P450 3A4 (Homo sapiens, UniProt P08684); test: Inhibition of CYP3A4 in human liver microsomes using midazolam as substrate in presence of NADPH; format: ADME, Microsome
Cytochrome P450 3A4, sequence (P08684 whole entry): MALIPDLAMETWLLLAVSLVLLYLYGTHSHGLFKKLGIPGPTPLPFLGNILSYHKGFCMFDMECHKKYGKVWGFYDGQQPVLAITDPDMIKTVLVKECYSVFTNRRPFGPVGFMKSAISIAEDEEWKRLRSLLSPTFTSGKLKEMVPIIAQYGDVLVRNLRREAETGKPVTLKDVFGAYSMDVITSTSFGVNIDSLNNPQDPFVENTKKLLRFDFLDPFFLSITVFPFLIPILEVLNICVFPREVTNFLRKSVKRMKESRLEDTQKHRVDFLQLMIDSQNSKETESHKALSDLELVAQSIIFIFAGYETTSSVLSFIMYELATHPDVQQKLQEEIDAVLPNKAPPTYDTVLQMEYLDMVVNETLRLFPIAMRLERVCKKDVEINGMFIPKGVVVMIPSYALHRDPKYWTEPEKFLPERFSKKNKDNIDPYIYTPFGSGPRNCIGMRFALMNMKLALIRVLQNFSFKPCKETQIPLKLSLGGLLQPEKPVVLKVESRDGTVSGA

in vivo [22] = conditions: male, Sprague-Dawley, rat, po, 30 mg/kg
[23] = In vivo induction of phosphorylated SLP-76 degradation in C57BL/6J mouse spleen at 0.5 mg/kg administered as single dose and measured after 12 hrs; format: functional
hERG (KCNH2) = hERG (KCNH2) (Homo sapiens, UniProt Q12809); test: Inhibition of human ERG at 3 uM by patch clamp method relative to control; format: toxicity
hERG (KCNH2), sequence (Q12809 whole entry): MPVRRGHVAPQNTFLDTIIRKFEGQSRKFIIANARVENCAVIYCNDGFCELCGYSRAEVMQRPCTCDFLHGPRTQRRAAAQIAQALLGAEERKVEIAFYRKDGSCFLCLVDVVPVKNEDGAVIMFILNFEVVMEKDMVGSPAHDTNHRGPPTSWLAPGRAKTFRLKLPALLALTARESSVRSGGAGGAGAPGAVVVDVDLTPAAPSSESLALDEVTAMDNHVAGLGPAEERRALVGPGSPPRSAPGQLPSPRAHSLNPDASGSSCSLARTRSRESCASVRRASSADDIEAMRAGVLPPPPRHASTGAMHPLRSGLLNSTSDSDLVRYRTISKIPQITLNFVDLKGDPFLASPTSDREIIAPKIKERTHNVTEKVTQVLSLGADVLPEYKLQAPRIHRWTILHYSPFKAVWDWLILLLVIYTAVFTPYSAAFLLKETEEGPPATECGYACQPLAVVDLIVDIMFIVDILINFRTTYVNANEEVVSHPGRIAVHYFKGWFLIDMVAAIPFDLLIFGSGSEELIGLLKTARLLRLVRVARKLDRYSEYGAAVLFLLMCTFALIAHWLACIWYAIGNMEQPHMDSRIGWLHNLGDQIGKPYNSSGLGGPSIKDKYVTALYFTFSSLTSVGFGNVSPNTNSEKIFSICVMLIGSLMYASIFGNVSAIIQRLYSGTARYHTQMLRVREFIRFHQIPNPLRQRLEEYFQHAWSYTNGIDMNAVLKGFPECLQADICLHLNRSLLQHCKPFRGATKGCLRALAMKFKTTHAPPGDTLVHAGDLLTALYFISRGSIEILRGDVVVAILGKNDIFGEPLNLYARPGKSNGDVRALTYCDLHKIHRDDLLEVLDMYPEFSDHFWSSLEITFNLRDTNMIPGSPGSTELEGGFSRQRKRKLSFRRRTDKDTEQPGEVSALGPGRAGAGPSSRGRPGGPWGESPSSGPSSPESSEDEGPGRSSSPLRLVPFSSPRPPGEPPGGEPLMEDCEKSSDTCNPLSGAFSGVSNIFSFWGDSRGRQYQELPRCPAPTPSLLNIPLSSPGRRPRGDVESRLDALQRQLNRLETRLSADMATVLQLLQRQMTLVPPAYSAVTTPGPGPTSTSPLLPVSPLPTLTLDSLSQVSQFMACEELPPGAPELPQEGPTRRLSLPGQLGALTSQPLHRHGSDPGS

[24] = Tmax in female Sprague-Dawley rat at 100 mg/kg/day, po measured at day 14; format: ADME, organism-based; conditions: in vivo, time 14 day
MC-38 [25] = test: Synergistic antitumor activity against mouse MC38 cells implanted in C57BL/6J mouse assessed as reduction in tumor weight at 0.1 mg/kg, po bid administered for 3 to 4 weeks in presence of 5 mg/kg anti-PD1 and measured twice a week (reference value: 1.79 +/- 0.24 g); format: functional; conditions: time 3-4 weeks
MC-38 [26] = test: Antitumor activity against mouse MC38 cells implanted in po dosed C57BL/6J mouse assessed as tumor growth inhibition administered for 3 to 4 weeks; format: functional, organism-based; conditions: time 3-4 weeks
in vivo [27] = conditions: female, Sprague-Dawley, rat, po, 100 mg/kg
[28] = Clearance in mouse at 2 mg/kg, iv measured upto 24 hrs by LC-MS analysis; format: ADME, organism-based; conditions: in vivo
in vitro [29] = conditions: human, hepatocytes
[30] = Metabolic stability in dog hepatocytes assessed as intrinsic clearance at 1 uM incubated for 90 mins by LC-MS/MS method; format: ADME, cell-based, Canis lupus familiaris, Hepatocyte; conditions: 1.5 h
[31] = Initial plasma concentration in C57BL/6J mouse at 2 mg/kg, iv measured upto 24 hrs by LC-MS analysis; format: ADME, organism-based
in vivo [32] = conditions: male, Sprague-Dawley, rat, po, 30 mg/kg; remark: listed apart in the source
MC-38 [33] = test: Antitumor activity against mouse MC38 cells implanted in C57BL/6J mouse assessed as reduction in tumor weight at 0.5 mg/kg, po BID administered for 3 to 4 weeks (reference value: 1.79 +/- 0.24 g); format: functional; conditions: time 3-4 weeks
[34] = Toxicity in C57BL/6J mouse assessed as change in body weight at 0.1 to 1 mg/kg, po bid measured after 28 days in presence of 5 mg/kg anti-PD1; format: organism-based; conditions: in vivo, 672 h, dose 0.1-1 mg/kg, time 28 day
[35] = Drug metabolism in rat hepatocytes assessed as phase 2 metabolites formation at 10 uM incubated for 120 mins by UHPLC-UV/MS/MS method; format: ADME, cell-based, Hepatocyte; conditions: 2 h
in vitro [36] = conditions: rat, hepatocytes
[37] = Toxicity in C57BL/6J mouse assessed as change in body weight at 0.1 to 1 mg/kg, po bid measured after 28 days; format: organism-based; conditions: in vivo, 672 h, dose 0.1-1 mg/kg, time 28 day
MC-38 [38] = test: Synergistic antitumor activity against mouse MC38 cells implanted in C57BL/6J mouse assessed as reduction in tumor weight at 1 mg/kg, po bid administered for 3 to 4 weeks in presence of 5 mg/kg anti-PD1 and measured twice a week (reference value: 1.79 +/- 0.24 g); format: functional; conditions: time 3-4 weeks

## O=C1CCN(c2cc(C(=O)N3CCC(CC4CCN(c5ccc(-c6cnc7[nH]cc(-c8cnn(CC(F)(F)F)c8)c7n6)cn5)CC4)CC3)ccc2Cl)C(=O)N1
[1]
  Vz: 0.121 L/kg
[2]
  Drug uptake: Active
[3]
  Tmax: 3.17 h
[4]
  Drug metabolism: metabolite_detected
[5]
  Papp B→A at 2 h, 10 µM: 1.12 nm/s
MC-38 [6]
  Activity: 0.3 g
[7]
  clearance: 1.62 L/h/kg
[8]
  Activity: 55.6%
[9]
  Activity: inactive
MC-38 [10]
  Activity: 338.13 mm3
[11]
  Drug absorption: Active
[12]
  Tmax: 8 h
[13]
  Drug metabolism: metabolite_detected
[14]
  Drug absorption: Active
In vivo [15]
  Cmax at 24 h: 0.084 µg/mL
In vitro [16]
  half-life at 0.75 h, 1 µM: 1.73 h
MC-38 [17]
  Activity: 0.24 g
In vivo [18]
  Cmax at 336 h: 4.21 µg/mL
[19]
  Activity: Active
In vitro [20]
  half-life at 0.75 h, 1 µM: 1.14 h
[21]
  Vd: 0.659 L/kg
Cytochrome P450 3A4
  IC50: > 10 µM
In vivo [22]
  AUC at 336 h: 38.2 µg·h/mL
[23]
  Emax at 0.5 mg/kg: 77.6%
hERG (KCNH2)
  inhibition at 3 µM: 4.36%
[24]
  Tmax: 8.67 h
MC-38 [25]
  Activity: 1.17 g
MC-38 [26]
  Activity: Dose-dependent-effect; Twice Daily Dose Was Slightly Better Than Once Daily
In vivo [27]
  Cmax at 24 h: 11.2 µg/mL
[28]
  clearance: 0.0359 L/h/kg
In vitro [29]
  half-life at 1.5 h, 1 µM: 6.02 h
[30]
  CLH: 3.33 µL/min/mg
[31]
  C0 at 24 h: 1.59 µg/mL
In vivo [32]
  Cmax at 336 h: 3.2 µg/mL
MC-38 [33]
  Activity: 1.04 g
[34]
  Activity: Non-toxic
[35]
  Drug metabolism: metabolite_detected
In vitro [36]
  half-life at 1.5 h, 1 µM: 3.9 h
[37]
  Activity: Non-toxic
MC-38 [38]
  Activity: 0.47 g
